From US9115142B2, “Heterocycle-substituted piperazino-dihydrothienopyrimidines” (Boehringer Ingelheim International GmbH, priority 2007, dated 2015) come the findings set out here.

Where a name gives a salt, the structure may show the parent alone.

PDE4B, sequence (Q07343 whole entry, species assumed): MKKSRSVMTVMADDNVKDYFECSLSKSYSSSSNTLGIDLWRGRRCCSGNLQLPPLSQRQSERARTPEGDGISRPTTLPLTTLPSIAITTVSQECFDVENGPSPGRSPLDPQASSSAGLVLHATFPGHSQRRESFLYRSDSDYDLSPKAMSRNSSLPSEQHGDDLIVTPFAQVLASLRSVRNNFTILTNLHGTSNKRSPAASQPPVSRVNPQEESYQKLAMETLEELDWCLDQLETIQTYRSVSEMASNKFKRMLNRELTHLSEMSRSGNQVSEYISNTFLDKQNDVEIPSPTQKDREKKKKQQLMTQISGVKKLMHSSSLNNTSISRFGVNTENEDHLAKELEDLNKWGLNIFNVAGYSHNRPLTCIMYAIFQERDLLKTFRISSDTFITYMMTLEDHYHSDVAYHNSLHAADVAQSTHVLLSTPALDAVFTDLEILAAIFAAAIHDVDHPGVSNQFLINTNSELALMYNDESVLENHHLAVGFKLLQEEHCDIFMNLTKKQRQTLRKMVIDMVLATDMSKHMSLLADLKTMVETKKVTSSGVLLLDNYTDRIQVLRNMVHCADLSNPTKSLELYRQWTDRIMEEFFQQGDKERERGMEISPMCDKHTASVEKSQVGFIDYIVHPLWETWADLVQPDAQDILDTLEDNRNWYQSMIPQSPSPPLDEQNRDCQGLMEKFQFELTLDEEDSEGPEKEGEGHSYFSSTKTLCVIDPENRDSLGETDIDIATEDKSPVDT

This assay has as its target PDE4B (Homo sapiens, UniProt Q07343). Nature of the assay: Scintillation Proximity Assay (SPA) of PDE4B enzymatic activity ([H3]-cAMP cleavage). The settings on record: test substance 1 μM; one-hour incubation with [H3]-cAMP and PDE4B at 30° C. In kind it is biochemical. How it is done:
The Scintillation Proximity Assay (SPA) (GE Healthcare, No. TRKQ7090) was carried out by using the different affinities of cyclic 3″-5″-adenosinemonophosphate (cAMP, low affinity) and linear 5″-adenosinemonophosphate (AMP, high affinity) for yttrium silicate scintillator beads. The cAMP specific phosphodiesterase (PDE) PDE4B cleaves the 3″-phosphoester bond of tritium-labelled [H3]-cAMP to form [H3]-5″-AMP. This [H3]-AMP accumulates on the scintillator beads because of its higher affinity for them and causes scintillation events (flashes of light) which are measured in a Wallac Microbeta Scintillation Counter.
The experiment starts with a one-hour incubation of [H3]-cAMP with the PDE4B enzyme in assay buffer at 30° C., in each case once with the Example substance to be tested (in a concentration of 1 μM) and once without the Example substance to be tested.
After this incubation, the reaction is stopped by the addition of the beads. The beads have an opportunity to settle in the next 45 minutes, then the measurement is carried out in the Scintillation Counter. If the substance is capable of inhibiting the enzymatic activity of the PDE4B, less [H3]-AMP is produced during the incubation phase and fewer scintillation events can be measured.
`[O-][S+]1CCc2nc(N3CCN(c4nc5ccccc5o4)CC3)nc(Nc3cccc(F)c3)c21` (stereo not shown) [Example 3, [2-(4-benzoxazol-2-yl-piperazin-1-yl)-5-oxo-6,7-dihydro-5H-5λ^4-thieno[3,2-d]pyrimidin-4-yl]-(3-fluorophenyl)-amine]: the inhibition at 1 µM came to 95%. Next, `[O-][S+]1CCc2nc(N3CCN(c4noc5ccccc45)CC3)nc(Nc3cccc(F)c3)c21` (stereo not shown) [Example 144, [2-(4-benzo[d]isoxazol-3-yl-piperazin-1-yl)-5-oxo-6,7-dihydro-5H-5λ^4-thieno[3,2-d]pyrimidin-4-yl]-(3-fluorophenyl)-amine]: 96%; `[O-][S+]1CCc2nc(N3CCN(c4nccs4)CC3)nc(Nc3cccc(F)c3)c21` (stereo not shown) [Example 1, (3-fluorophenyl)-[5-oxo-2-(4-thiazol-2-yl-piperazin-1-yl)-6,7-dihydro-5H-5λ^4-thieno[3,2-d]pyrimidin-4-yl]-amine]: 94%; `[O-][S+]1CCc2nc(N3CCN(c4ccnc(O)c4)CC3)nc(Nc3cccc(F)c3)c21` (stereo not shown) [Example 114, 4-{4-[4-(3-fluorophenylamino)-5-oxo-6,7-dihydro-5H-5λ^4-thieno[3,2-d]pyrimidin-2-yl]-piperazin-1-yl}-pyridin-2-ol]: 96%. Next, `COc1cccc2c1nc(N1CCN(c3nc4c(c(Nc5cccc(F)c5)n3)[S+]([O-])CC4)CC1)n2C` (stereo not shown) [Example 108, (3-fluorophenyl)-{2-[4-(4-methoxy-1-methyl-1H-benzimidazol-2-yl)-piperazin-1-yl]-5-oxo-6,7-dihydro-5H-5λ^4-thieno[3,2-d]pyrimidin-4-yl}-amine trifluoroacetate]: 95%. As to `[O-][S+]1CCc2nc(N3CCN(c4ccnnc4)CC3)nc(Nc3cccc(F)c3)c21` (stereo not shown) [Example 18, (3-fluorophenyl)-[5-oxo-2-(4-pyridazin-4-yl-piperazin-1-yl) 6,7-dihydro-5H-5λ^4-thieno[3,2-d]pyrimidin-4-yl]-amine], the inhibition at 1 µM stood at 96%. Next, `CCOCCOc1ccc(N2CCN(c3nc4c(c(N[C@@H](CO)C(C)C)n3)[S+]([O-])CC4)CC2)nn1` (stereo partly drawn) [Example 38, (R)-2-(2-{4-[6-(2-ethoxyethoxy)-pyridazin-3-yl]-piperazin-1-yl}-5-oxo-6,7-dihydro-5H-5λ^4-thieno[3,2-d]pyrimidin-4-ylamino)-3-methylbutan-1-ol trifluoroacetate]: 96%; `CC(C)[C@H](CO)Nc1nc(N2CCN(c3nc4ccccc4o3)CC2)nc2c1[S+]([O-])CC2` (stereo partly drawn) [Example 10, (R)-2-[2-(4-benzoxazol-2-yl-piperazin-1-yl)-5-oxo-6,7-dihydro-5H-5λ^4-thieno[3,2-d]pyrimidin-4-ylamino]-3-methylbutan-1-ol]: 94%; `CN1C[C@@H](Nc2nc(N3CCN(c4ccncn4)CC3)nc3c2[S+]([O-])CC3)CCC1=O` (stereo partly drawn) [Example 71, (S)-1-methyl-5-[5-oxo-2-(4-pyrimidin-4-yl-piperazin-1-yl)-6,7-dihydro-5H-5λ^4-thieno[3,2-d]pyrimidin-4-ylamino]-piperidin-2-one]: 96%.

As to `CC(C)[C@H](CO)Nc1nc(N2CCN(c3ccncc3)CC2)nc2c1[S+]([O-])CC2` (stereo partly drawn) [Example 32, (R)-3-methyl-2-[5-oxo-2-(4-pyridin-4-yl-piperazin-1-yl)-6,7-dihydro-5H-5λ^4-thieno[3,2-d]pyrimidin-4-ylamino]-butan-1-ol trifluoroacetate], 1 µM produced 77% inhibition.
